Experimental data reported in patent US7344710B2 (priority 2001, dated 2008).

Experiments:
[1] = mouse, in vivo
B16 tumors = system: B16 tumors; set-up: species or system mice; conditions: mouse, in vivo
HCT116 tumor xenograft = system: HCT116 tumor xenograft; set-up: species or system mice; conditions: mouse, in vivo

Question: For COBALT, which “Deaths after a single dose of COBALT” value [1] is on record?
Answer: The value was “three of the mice died”.

Question: And the “Deaths after the first dose of COBALT” value [1]?
Answer: The value was “Four mice died”.

Question: And the “Effect on tumor growth (FIG. 6C)” value (B16 tumors)?
Answer: The value was “tumors remained small over the four week course of this experiment”.

Question: And the “Effect on tumor growth (FIG. 6A, 6B)” value (HCT116 tumor xenograft)?
Answer: Its value is “tumors actually shrinking rather than simply slowing”.

Question: And the “Mice cured / complete tumor regression / long-term tumor-free survival” value (HCT116 tumor xenograft)?
Answer: Its value is “four were apparently cured of their tumor and Four of these seven mice were cured and four of eight and half”.

Question: And the “Mice developing striking hemorrhagic necrosis of their tumors” value (HCT116 tumor xenograft)?
Answer: Its value is “seven of eight”.

Question: What about the “Time at which a black spot of hemorrhagic necrosis is evident” value (HCT116 tumor xenograft) of the same substance?
Answer: Its value is 0.3 days.

Question: And the “Visible hemorrhagic necrosis and disappearance of tumors (FIG. 5)” value (HCT116 tumor xenograft)?
Answer: Its value is “dramatic effects on large subcutaneous tumors”.
